These results are taken from patent publication US20110312984A1, “STAT3 INHIBITORS” (priority 2008, published 2011).

What all share (type): cell-based
One experiment relates to MDA-MB-453. In words: Breast cancer cell line apoptosis assay (nucleosome ELISA). The following applies: Homo sapiens, MDA-MB-453, 24 h. The method, then: (§1) Breast cancer cell line apoptosis assay. Human breast carcinoma cell lines MDA-MB-468, MDA-MB-231, MBA-MD-435 and MCF7 were kindly provided by Dr. Powel H. Brown (Breast Cancer Center, Baylor College of Medicine). Breast cancer cell line, MDA-MB-453 was kindly provided by Dr. Shou Jiang (Breast Cancer Center, Baylor College of Medicine). All cell lines were grown in DMEM medium supplemented with 10% fetal bovine serum (FBS), 25,000 units penicillin G, 25,000 ug streptomycin, and 131.4 mg L-Glutamine and cultured in the incubator under the condition of 95% air, 5% CO2 at 37° C. (Garcia et al., 2001). Cells were seeded at 2,500 cells/cm^2 into 12-well plates. At 80% confluency, cells were washed with PBS and supplemented with fresh medium containing compound or the topoisomerase I-inhibitor, camptothecin, at 0, 0.1, 03, 1, 3, 10, 30, 100, 300 µM. At 24 hours, treatment was terminated by removing the medium from each well. Cells were lysed with cell lysis buffer (600 μl for 30 minutes at 25° C.). Cell lysate (200 μl) was centrifuged at 200×g for 10 minutes and 20 μl of each supernatant was assayed for nucleosomes using the Cell Death Detection ELISA (Roche Applied Science) as described by the manufacturer. The percent maximum nucleosome level was calculated by dividing the nucleosome level by the maximum nucleosome level achieved in the assay and multiplying by 100. […]
On the technique in general: In an ELISA, binding on a coated surface is turned into a signal by an enzyme label.

The next experiment deals with MCF7. The experiment is described as above. The following applies: Homo sapiens, MCF7, 24 h. The method, then: as §1
In a further experiment the target is T1, Stat1 (Homo sapiens, UniProt P42224).
T1 construct: endogenous in cells; host or cells: HepG2
T1 sequence (P42224 1-750): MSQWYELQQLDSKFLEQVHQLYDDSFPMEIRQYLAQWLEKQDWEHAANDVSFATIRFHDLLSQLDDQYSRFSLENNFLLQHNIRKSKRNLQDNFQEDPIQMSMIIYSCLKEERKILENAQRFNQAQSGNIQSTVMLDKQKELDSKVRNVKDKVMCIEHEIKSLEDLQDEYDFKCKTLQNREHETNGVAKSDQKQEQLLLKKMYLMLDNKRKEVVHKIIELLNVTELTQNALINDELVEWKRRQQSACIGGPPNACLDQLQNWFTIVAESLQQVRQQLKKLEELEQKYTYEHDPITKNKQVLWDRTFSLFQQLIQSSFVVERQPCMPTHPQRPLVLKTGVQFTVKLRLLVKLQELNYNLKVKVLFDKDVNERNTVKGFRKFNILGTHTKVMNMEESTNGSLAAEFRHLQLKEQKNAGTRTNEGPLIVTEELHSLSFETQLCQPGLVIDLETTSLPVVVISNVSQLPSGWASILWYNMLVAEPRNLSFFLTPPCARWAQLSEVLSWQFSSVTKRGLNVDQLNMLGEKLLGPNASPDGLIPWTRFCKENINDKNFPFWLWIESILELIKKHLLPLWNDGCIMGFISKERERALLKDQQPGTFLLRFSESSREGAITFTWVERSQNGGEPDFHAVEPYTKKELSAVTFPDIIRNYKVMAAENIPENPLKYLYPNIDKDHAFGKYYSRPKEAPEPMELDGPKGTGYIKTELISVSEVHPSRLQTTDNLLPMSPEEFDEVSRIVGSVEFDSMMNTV
In words: Immunoblot assay: IFN-γ-mediated phosphorylation of Stat1 in HepG2 cells. The following applies: 300 μM, 1 hour at 37° C. before IFN-γ stimulation. The procedure: Immunoblot assay. The human hepatocellular carcinoma cell line (HepG2) was grown in 6-well plates under standard conditions. Cells were pretreated with compounds (0, 1, 3, 10, 30, 100 and 300 uM) for 1 hour then stimulated under optimal conditions with either interferon gamma (IFN-γ; 30 ng/ml for 30 min) to activate Stat1 or interleukin-6 (IL-6; 30 ng/ml for 30 min) to activate Stat3 (30-31). Cultures were then harvested and proteins extracted using high-salt buffer, as described (Shao et al., 2006). Briefly, extracts were mixed with 2× sodium dodecyl sulfate (SDS) sample buffer (125 mmol/L Tris-HCL pH 6.8; 4% SDS; 20% glycerol; 10% 2-mercaptoethanol) at a 1:1 ratio and heated for 5 minutes at 100° C. Proteins (20 μg) were separated by 7.5% SDS-PAGE and transferred to polyvinylidene fluoride (PVDF) membrane (Millipore, Waltham, Mass.) and immunoblotted. Prestained molecular weight markers (Biorad, Hercules, Calif.) were included in each gel. Membranes were probed serially with antibody against Stat1 pY^701 or Stat3 pY^705 followed by antibody against Stat1 or Stat3 (Transduction labs, Lexington, Ky.) then antibody against β-actin (Abcam, Cambridge, Mass.). Membranes were stripped between antibody probing using Restore™ Western Blot Stripping Buffer (Thermo Fisher Scientific Inc., Waltham, Mass.) per the manufacturer's instructions. Horseradish peroxidase-conjugated goat-anti-mouse IgG was used as the secondary antibody (Invitrogen Carlsbad, Calif.) and the membranes were developed with enhanced chemiluminescence (ECL) detection system (Amersham Life Sciences Inc.; Arlington Heights, Ill.).
EXP IIC. Ligand-mediated pStat3 and pStat1 inhibition assays. […] Briefly, human hepatocellular carcinoma cells (HepG2) are grown in 6-well plates and pretreated with compounds (0, 0.1, 0.3, 1, 3, 10, 30, 100 μM) for 1 hour then stimulated under optimal conditions with either interleukin-6 (IL-6; 30 ng/ml for 30 min) to activate Stat3 or interferon gamma (IFN-γ; 30 ng/ml for 30 min) to activate Stat1. Cells are harvested and proteins extracted using high-salt buffer, mixed with 2× sodium dodecyl sulfate (SDS) sample buffer (125 mmol/L Tris-HCL pH 6.8; 4% SDS; 20% glycerol; 10% 2-mercaptoethanol) at a 1:1 ratio then heated for 5 minutes at 100° C. Proteins (20 μg) are separated by 7.5% SDS-PAGE and transferred to polyvinylidene fluoride (PVDF) membrane (Millipore, Waltham, Mass.) and immunoblotted. Membranes are probed serially with antibody against Stat1 pY701 or Stat3 pY705 followed by antibody against Stat 1 or Stat3 (Transduction labs, Lexington, Ky.) then antibody against β-actin (Abcam, Cambridge, Mass.). Membranes are stripped between antibody probings using Restore™ Western Blot Stripping Buffer (Thermo Fisher Scientific Inc., Waltham, Mass.) per the manufacturer's instructions. Horseradish peroxidase-conjugated goat-anti-mouse IgG is used as the secondary antibody (Invitrogen Carlsbad, Calif.) and the membranes are developed with enhanced chemiluminescence (ECL) detection system (Amersham Life Sciences Inc.; Arlington Heights, Ill.). Band intensities are quantified by densitometry. The value of each pStat3 band is divided by its corresponding total Stat3 band intensity; the results are normalized to the DMSO-treated control value. This value was plotted as a function of the log compound concentration. The best-fitting curve is determined using 4-Parameter Logistic Model/Dose Response/XLfit 4.2, IDBS software and was used to calculate the IC50 value.

A word on the EC50: it is the concentration giving half of the maximal effect. A high value points to lower potency in that assay. Take `O=C(O)CSc1cc(NS(=O)(=O)c2ccc(C(=O)O)cc2)c2ccccc2c1O` [Cpd188, 4-[({3-[(carboxymethyl)thio]-4-hydroxy-1-naphthyl}amino)sulfonyl]benzoic acid]: the results for the EC50 in the experiment with MDA-MB-453 and in the experiment with MCF7 were 17.2 µM and 15.5 µM, respectively. On Stat1, the Stat1 phosphorylation blocked entry is reported as “did not”.
